Results published in PMC9050848, “Carbamoyl-N-aryl-imine-urea: a new framework to obtain a putative leishmanicidal drug-candidate” (RSC Advances, 2020).
Like-named read-outs stand apart in the source and are kept apart here.

Legend:
[1] = system: L. braziliensis intracellular amastigotes; test: Leishmanicidal activity against intracellular amastigote forms of L. braziliensis in J774.A1 macrophages; assay type: cell-based; conditions: Leishmania braziliensis; for IC50: read-out: IC50 (concentration required to give 50% death of parasites); for Emax: maximum toxicity vs 0.1% DMSO group, read-out: Maximum effect (% ± S.E.M.)
Excerpt: Further, the leishmanicidal activity against intracellular amastigotes forms of L. braziliensis were also investigated (Table 2).
(§1) Promastigotes of L. amazonensis (MHOM/BR/77/LTB0016) were obtained from Dr Eduardo Caio Torres dos Santos at Oswaldo Cruz Institute – Fiocruz. Promastigotes of L. braziliensis (MHOM/BR/01/BA788) were obtained from Dr Valéria de Matos Borges at Gonçalo Moniz Research Center – Fiocruz. The parasites were maintained in vitro in Schneider's medium, supplemented with 10% FBS and 2% human urine at 27 °C in BOD incubator.
(§2) Initially, compounds 9a–e and 10a–e were evaluated at screening concentration of 30 μM against L. amazonensis, using DMSO 0.03% as vehicle control, since this was the DMSO concentration (vehicle) remaining in each well with the tested compounds. […] Vehicle control used was DMSO 0.1%, since this was the concentration of DMSO (vehicle) existing in each well with the tested substances in the highest concentration used.
(§3) To assess the activity of the test derivatives against the amastigote stage of L. amazonensis and L. braziliensis the model of infection in coverglass was realized.[31] The murine macrophages (J774.A1 cell line) were prepared in 24-well cell culture plate (flat bottom, clear, Corning) at 2 × 10^5 adherent cells per well, infected with 2 × 10^6 promastigotes in glass coverslips placed inside 1 mL medium culture. The cultures were cultured or not with the test derivatives or reference drugs, and kept for 24 h at 37 °C, 5% CO2. After 24 h of incubation, the coverslips were washed, stained with Giemsa–May–Grünwald, and intracellular amastigotes were counted in 100 macrophages, using an optical microscope, on the objective of 100×. Thus, during the counting of 100 macrophages, the amount of amastigotes present within these defence cells was also determined. Data obtained from in vitro experiments were expressed as the mean ± S.E.M. of duplicate cultures of representative assays. Statistical differences between the treated and the control groups were evaluated by ANOVA and Dunnett hoc tests. Differences with a p value < 0.05 or lower were considered significant.

[2] = system: J774.A1 cell lines (macrophages); test: Cytotoxicity against J774.A1 macrophages, MTT assay; assay type: cell-based, murine (BALB/c); conditions: Mus musculus, read-out: IC50 (concentration required to give 50% death of cells)
Experimental: Initially the cytotoxic profile of compounds 9a–e and 10a–e against J774.A1 cell lines (i.e., BALB/c macrophage cell lines) was investigated. Therefore, these cells were exposed to different concentrations (0.1–100 μM) of compounds 9a–e and 10a–e and the cytotoxic effect was measured after 48 h of drug incubation, by using MTT-based assay. The cytotoxicity was expressed as IC50 values (that means the concentration of a drug that kills half of the tested cells in culture). As depicted in Table 1, most compounds have shown low cytotoxic activity with IC50 > 100 μM.
These adherent-phenotype macrophage lines were cultured in Dulbecco's Modified Eagle's medium (DMEM, Sigma) supplemented with 10% FBS at 37 °C with 95% humidity and 5% CO2.
To evaluate the cytotoxic activity against the J774.A1 cell line, the host cells were plated in 96-well cell culture plate (flat bottom, clear, Corning) at 2 × 10^5 cells per well in complete culture medium 10% FBS at 37 °C. After 1 h wells were washed with warm Hank's Balanced Salt solution (HBSS) to remove non-adherent cells, leaving approximately 10^5 adherent macrophages. All cultures were done in DMEM complete supplemented with 10% FBS. The compounds and pentamidine were added at serial concentrations (0.1–100 μM). The cells were also cultured with medium free from compounds or vehicle (basal growth control) or in media with DMSO 0.1% (vehicle control). Positive control (dead cells) was obtained by cellular lysis with 1% of Triton 100× in DMEM complete (because it is a detergent in this concentration, Triton 100× destabilizes the cell membrane of macrophages, causing cell death). The cytotoxicity was evaluated by the MTT assay.[31] This assay consists of indirectly measuring cell viability through the mitochondrial enzymatic activity of macrophages. Viable cells are capable of reducing MTT to formazan. For this, after the incubation of plate for 48 h, 100 μL of MTT solution (0.5 mg mL^−1, in DMEM medium) was added per well, and the plate was incubated for 1 h. Then, the supernatant of each well was retired and was added 150 μL of DMSO. The absorbance was determined at 570 nm in a microplate reader. The cell viability of the cultures treated with the compounds was compared to the death pattern obtained in the control cultures. In the positive control, the cell death was confirmed when the optical density was equal to zero, confirming that the cells were not viable. Data obtained from experiments were expressed as the mean ± standard error of the mean (mean ± S.E.M.) and statistical differences between the treated and the vehicle groups of experiments were evaluated by ANOVA and Dunnett hoc tests.

[3] = system: L. amazonensis intracellular amastigotes; test: Leishmanicidal activity against intracellular amastigote forms of L. amazonensis in J774.A1 macrophages; assay type: cell-based; conditions: for IC50 / Emax: Leishmania amazonensis; for IC50: read-out: IC50 (concentration required to give 50% death of parasites); for Emax: maximum toxicity vs 0.1% DMSO group, read-out: Maximum effect (% ± S.E.M.); for Effect on the number of intracellular amastigotes: L. amazonensis, screening concentration 30 μM
Experimental: Considering that L. amazonensis is one of the causative species of cutaneous leishmaniasis in Brazil,[20] we have investigated the leishmanicidal effect of compounds 9a–e and 10a–e against L. amazonensis amastigotes forms. Initially, all compounds were evaluated at 30 μM. […] Then, they were selected to determine their IC50 value for intracellular amastigote forms of L. amazonensis.
as §1, §2, §3

[4] = Toxicity in treated infected mice (survival, spleen weight, serum biochemistry); assay type: in vivo; conditions: infected BALB/c mice, 30 μmol kg−1 daily for 28 days, n = 5
Experimental: The survival of BALB/c mice infected with L. amazonensis untreated and treated during 28 days with the daily dose of 30 μmol kg^−1 with meglumine antimoniate, miltefosine and 10e (LASSBio-1736) was analyzed. Animal mortality was not observed for the groups treated with 10e and miltefosine, while 20% of death was identified from the 25th day of treatment with meglumine antimoniate (Fig. 11). After the end of treatment, the animal's toxicity was investigated looking for any alterations on spleen weight and on alanine aminotransferase (ALT), aspartate aminotransferase (AST), creatinine (CREA) and urea serum levels.
(§4) This study (protocol number 2013.02) was approved by the Ethics Committee for Animal Experimentation of the Federal University of Alagoas (Brazil). All animals received humane care in compliance with the ‘Principles of laboratory animal care’ formulated by the National Society for Medical Research and the ‘Guide for the care and use of laboratory animals’ prepared by the National Academy of Sciences (Washington, DC). Then, 1 × 10^5 stationary promastigotes (5 days of culture in Schneider's medium) of L. amazonensis were inoculated subcutaneously into the right ear dermis of 6 week-old female BALB/c mice weighing ca. 20 g. and later treated with 10e (i.p.), miltefosine (p.o.) or meglumine antimoniate (i.p.) at 30 μmol kg^−1 × 28 days. The vehicle to solubilize 10e (LASSBio-1736) and standard drugs was Tween 20 (50 μL) and sterile water for injection, which was also administrated by i.p. route in two controls groups (non-infected control and infected control). The lesion size was measured using a paquimeter.[32] The parasite loads of infected ears and draining lymph nodes were determined using a quantitative limiting-dilution assay.[33] Toxicity was also evaluated due to alterations on spleen weight and by biochemistry dosages in plasma, performed according to the manufacturer's instructions (Doles, BRA). Data obtained from experiments were expressed as the mean ± S.E.M. and statistical differences between the treated and the vehicle groups of experiments were evaluated by ANOVA and Dunnett hoc tests.

[5] = system: L. amazonensis; test: Murine model of cutaneous leishmaniasis induced by L. amazonensis (efficacy); assay type: in vivo, BALB/c mice; conditions: 30 μmol per kg per day × 28 days
Experimental: So, BALB/c mice infected with L. amazonensis were treated during 28 days with compound 10e (30 μmol per kg per day, i.p.) or with the standards miltefosine (30 μmol per kg per day, p.o.) and meglumine antimoniate (30 μmol per kg per day, i.p.).
as §4

[6] = J774.A1, L. braziliensis intracellular amastigotes, 24 h
[7] = J774.A1, L. braziliensis intracellular amastigotes
[8] = J774.A1 macrophages, 48 h incubation, MTT, 0.1–100 μM
[9] = J774.A1, L. amazonensis intracellular amastigotes, 24 h
[10] = J774.A1, L. amazonensis intracellular amastigotes
[11] = L. amazonensis amastigotes, ratio of IC50 values

Compound: N=C(N)c1ccc(OCCCCCOc2ccc(C(=N)N)cc2)cc1 [Pentamidine, reference compound]
- IC50 [1, 6]: 78.4 ± 4.7 µM
- Emax [1, 7]: 61.7 ± 2.2%
- IC50 [2, 8]: 35.5 ± 3.4 µM
- IC50 [3, 9]: 32.8 ± 4.6 µM
- Emax [3, 10]: 59.1 ± 5.6%

Compound: CCCCCCCCCCCCCCCCOP(=O)([O-])OCC[N+](C)(C)C [Miltefosine, reference compound]
- IC50 ([1]; J774.A1, 24 h): 32.1 ± 1.1 µM
- Emax [1, 7]: 84 ± 1.5%
- IC50 ([2]; J774.A1, 48 h): > 100 µM
- IC50 ([3]; J774.A1, 24 h): 22 ± 1.8 µM
- Emax [3, 10]: 58.1 ± 4.9%
- Animal mortality [4]: not observed
- Appearance of lesions on the first day after end of treatment (photographs) [5]: complete healing of the nodules and ulcers
- Lesion sizes of infected ear ([5]; 10e and meglumine antimoniate i.p., miltefosine p.o.): reduced the lesion sizes of infected ear
- Parasite load in infected ear ([5]; limiting-dilution assay): decreased parasite load in infected ear

Compound: O=C(N/N=C/c1cccc(O)c1)NNC(=O)c1ccc(Cl)cc1 [LASSBio-1709 (9c), 4-chloro-phenylcarbamoyl-N-3-hydroxyphenylimine-urea]
- IC50 [2, 8]: 85.2 ± 2.3 µM

Compound: O=C(N/N=C/c1ccccc1O)NNC(=O)c1ccc(Cl)cc1Cl [LASSBio-1705 (10b), 2,4-dichloro-phenylcarbamoyl-N-2-hydroxyphenylimine-urea]
- IC50 [2, 8]: 78.1 ± 4.5 µM

Compound: O=C(N/N=C/c1ccc(O)cc1)NNC(=O)c1ccc(Cl)cc1 [LASSBio-1706 (9d), 4-chloro-phenylcarbamoyl-N-4-hydroxyphenylimine-urea]
- IC50 [1, 6]: 3.6 ± 0.6 µM
- Emax [1, 7]: 70.4 ± 1.9%
- IC50 [2, 8]: 86.2 ± 8.7 µM
- Effect on the number of intracellular amastigotes [3]: decreased the number of intracellular amastigotes
- IC50 [3, 9]: > 100 µM

Compound: meglumine antimoniate [reference compound]
- Animal mortality [4]: 20%
- Appearance of lesions on the first day after end of treatment (photographs) [5]: the lesions showed an intense swelling and ulcerated

Compound: O=C(N/N=C/c1ccc([N+](=O)[O-])o1)NNC(=O)c1ccc(Cl)cc1 [LASSBio-1491 (9a), 4-chloro-phenylcarbamoyl-N-5-nitrofuranimine-urea]
- IC50 [2, 8]: > 100 µM

Compound: O=C(N/N=C/c1ccc(C(F)(F)F)cc1)NNC(=O)c1ccc(Cl)cc1 [LASSBio-1737 (9e)]
- IC50 [2, 8]: > 100 µM

Compound: O=C(N/N=C/c1ccc([N+](=O)[O-])o1)NNC(=O)c1ccc(Cl)cc1Cl [LASSBio-1703 (10a), 2,4-dichloro-phenylcarbamoyl-N-5-nitrofuranimine-urea]
- IC50 [2, 8]: > 100 µM

Compound: O=C(N/N=C/c1cccc(O)c1)NNC(=O)c1ccc(Cl)cc1Cl [LASSBio-1708 (10c), 2,4-dichloro-phenylcarbamoyl-N-3-hydroxyphenylimine-urea]
- IC50 [1, 6]: > 100 µM
- IC50 [2, 8]: > 100 µM
- Effect on the number of intracellular amastigotes [3]: decreased the number of intracellular amastigotes
- IC50 [3, 9]: > 100 µM
- Emax [3, 10]: 31 ± 1.7%

Compound: O=C(N/N=C/c1ccccc1O)NNC(=O)c1ccc(Cl)cc1 [LASSBio-1704 (9b), 4-chloro-phenylcarbamoyl-N-2-hydroxyphenylimine-urea]
- IC50 [1, 6]: > 100 µM
- Emax [1, 7]: 48.1 ± 4.5%
- IC50 [2, 8]: > 100 µM
- Times less potent than miltefosine [3, 11]: ~4.0 times
- Times less potent than pentamidine [3, 11]: about 2.5 times
- Effect on the number of intracellular amastigotes [3]: decreased the number of intracellular amastigotes
- IC50 [3, 9]: 85.3 ± 5 µM
- Emax [3, 10]: 55.6 ± 1.4%

Compound: O=C(N/N=C/c1ccc(O)cc1)NNC(=O)c1ccc(Cl)cc1Cl [LASSBio-1707 (10d), 2,4-dichloro-phenylcarbamoyl-N-4-hydroxyphenylimine-urea]
- IC50 [1, 6]: > 100 µM
- IC50 [2, 8]: > 100 µM
- Effect on the number of intracellular amastigotes [3]: decreased the number of intracellular amastigotes
- IC50 [3, 9]: > 100 µM
- Emax [3, 10]: 44.4 ± 0.2%
